Source: US12403132B2, “Methods of treating bone marrow failure syndromes and compositions for use in the same” (The Board of Trustees of the Leland Stanford Junior …, priority 2020, dated 2025)

Test system: NLK
Assay: NLK expression in differentiating human progenitors (qRT-PCR, Western blot)
Format: cell-based
Set-up: reduction of NLK protein expression / NLK expression, % of control: concentration or dose not given beside the values
Settings: for NLK expression, % of control: miRNAs or drugs, single and combined; for reduction of NLK protein expression: metformin
Procedure: FIG. 10. Metformin improves erythropoiesis through suppression of NLK expression. (Panel A) Control (shLuc—grey columns) or RPS19-insufficient (shRPS19-—black columns) progenitors were differentiated in erythroid media alone, vehicle or vehicle containing 50 mM metformin or 5 uM SD208 for 5 days. 5000 cells per treatment were lysed and immunopurified NLK was subjected to in vitro kinase assay to determine phosphorylation potential against 3 recognized NLK substrates; NLK itself (upper), c-Myb (middle) or raptor (bottom). (Panel B) Simultaneously, qRT-PCR was performed to examine NLK (upper) and RPS19 (lower) mRNA expression. (Panel C) Active NLK was purified from activated Kp53A1 cells and subjected to in vitro kinase assay in the presence of 0, 50 nM, 50 μM, or 50 mM metformin or SD208. The phosphorylation of NLK (upper), c-Myb (middle) and raptor (lower) was determined after 30 mins. (Panel D) CD34+ progenitors were transduced with a combination of either shRNA against luciferase (shLuc—grey columns) or RPS19 (shRPS19—black columns) and siRNA against a non-targeting sequence (NT) or NLK (siNLK). After 14 days differentiation in the presence or absence of metformin, cells were counted and the percentage of cells with surface expression of CD235 and CD11b were determined by flow cytometry, to yield the number of CD235+ erythroid (upper) and CD11b+ myeloid (lower) cells. The total number of cells is expressed as a percentage of the number of each cell type in the control (untreated/shLuc/NT). […] Statistics: two-tailed Student's t test, significant *P<0.05
RNA was extracted by using total RNA mini kit (Bio-Rad). RNA was transcribed into cDNA by using the iScript cDNA Synthesis Kit (Bio-Rad). The quantitative RT-PCR (qRT-PCR) reaction was run with iQ SYBR Green MasterMix (Bio-Rad) using the CFX384 Touch Real-Time PCR Detection System (Bio-Rad). 7SL small cytoplasmic RNA14 was used as an internal control. miRNA was quantified using TaqMan® Small RNA Assays (Applied Biosystems) as per manufacturer's directions and normalized to snoRNA. Fold change of mRNA and miRNA was calculated by using the comparative Ct method.
Antibodies against RPS19 (#AB40833; Abcam; 1:200 dilution), NLK (#AB97642; Abcam; 1:1000 dilution) c-Myb (#12319; Cell Signaling; 1;1000 dilution), raptor (#AB26264; Abcam 1;1000 dilution), phosphor-Serine (#525280; Calbiochem; 1:1000 dilution), S6K (#9202; Cell Signaling; 1:500 dilution), and 4E-BP1 (#9452; Cell Signaling; 1:500 dilution), and GAPDH (#MAB374; Millipore; 1:10000) were used according to manufacturer's instructions. The target proteins were analyzed by using SuperSignal® West Pico Chemiluminescent Substrate for horseradish peroxidase (Thermo Scientific). Densitometry was performed using Image J software (http://rsb.info.nih.gov/ij/). When indicated, proteins were co-immunoprecipitated prior to immunoblotting. Cell lysates were normalized for protein before preclearing with Protein A/G Agarose (Upstate) for 30 min, before incubating with indicated antibody overnight. Immune complexes were precipitated with Protein A/G Agarose and separated by SDS-PAGE, before being subjected to immunoblotting.
NLK kinase activity was performed as published (5). For Western blotting, antibodies against NLK (#AB97642; Abcam; 1:1000 dilution) and GAPDH (#MAB374; Millipore; 1:10000) were used according to manufacturer's instructions.
MessengerRNA was quantified as described (5). MicroRNA was quantified using TaqMan® Small RNA Assays (Applied Biosystems) as per manufacturer's directions and normalized to snoRNA.

Row | Compound | reduction of NLK mRNA expression (RPS19-insufficiency, 50 mM) | reduction of NLK mRNA expression (control, 50 mM) | reduction of NLK protein (differentiating HSPCs, 50 mM) | NLK expression, % of control | influence on NLK expression (5 uM SD208) | NLK expression (RPS19-insufficient and control cells) | reduction of NLK protein expression (RPS19-insufficient cultures) | reduction of NLK protein expression (control cultures)
1 | CC(C)=CCC[C@](C)(O[C@@H]1O[C@H](CO[C@@H]2O[C@H](CO)[C@@H](O)[C@H](O)[C@H]2O)[C@@H](O)[C@H](O)[C@H]1O)[C@H]1CC[C@]2(C)[C@@H]1[C@H](O)C[C@@H]1[C@@]3(C)CC[C@H](O[C@@H]4O[C@H](CO)[C@@H](O)[C@H](O)[C@H]4O[C@@H]4O[C@H](CO)[C@@H](O)[C@H](O)[C@H]4O)C(C)(C)[C@@H]3CC[C@]12C [ginsenoside Rb1] | 43.2% | 43.8% | 46.4% | 65.4% |  |  |  | 
2 | Fc1ccc(Cl)cc1-c1nc(Nc2ccncc2)c2nccnc2n1 [SD208] |  |  |  |  | did not significantly influence |  |  | 
3 | CN(C)C(=N)N=C(N)N [metformin] |  |  |  | 40.6% |  | similarly suppressed | 65.4% | 62.6%
